According to US20090081197A1 (Palatin Technologies, Inc., priority 2007, published 2009):
pEC50: −log10 of the molar value. Read-outs that look alike come from different tables or passages of the source. Positions of bridges follow the written chain, without caps; N, C: chain ends. Non-standard residues stand in square brackets, D forms with d. Residues, ends and D or L forms follow the SMILES beside them. *: point of attachment. Acetyl(2-naphthyl) = O=C(Cc1ccc2ccccc2c1)*; dPhe(4-Cl) = N[C@H](Cc1ccc(Cl)cc1)C(=O)O; 1Nal = N[C@@H](Cc1cccc2ccccc12)C(=O)O; 2Nal = N[C@@H](Cc1ccc2ccccc2c1)C(=O)O; d2Nal = N[C@H](Cc1ccc2ccccc2c1)C(=O)O; Ac6c = NC1(C(=O)O)CCCCC1; Heptanoyl = CCCCCCC(=O)*; Nle = CCCC[C@H](N)C(=O)O; Bn = c1ccc(C*)cc1

Legend:
MC4-R [1] = target: T1, MC4-R (Homo sapiens, UniProt P32245); test: cAMP agonist stimulation, high receptor density system (10 ng/mL doxycycline); details: for Efficacy/Intrinsic Activity: 10 ng/mL doxycycline, high receptor density hMC4-R system, NDP-α-MSH maximal cAMP = 1.0
MC3-R = MC3-R (Homo sapiens, UniProt P41968); test: Competitive inhibition assay using [I^125]-NDP-α-MSH, hMC3-R membranes; assay type: binding; design: expressed in transfected cells; details: read-out: Inhibition at 1 μM (NDP-α-MSH) In Normal System, MC3-R
Method: (§1) The ligand concentration used was 0.4 nM for MC3-R and MC5-R, 0.2 nM for MC4-R and 0.1 nM for B16-F10 (MC1-R) membranes. In certain experiments, hMC1-R was also employed.
(§2) The assay mixture was incubated for 90 minutes at room temperature, then filtered and the membranes washed three times with ice cold buffer. The filter was dried and counted in a gamma counter for remaining radioactivity bound to the membranes. […] Each assay was conducted in triplicate and the actual mean values are described, with results less than 0% reported as 0%.

MC5-R = MC5-R (Homo sapiens, UniProt P33032); test: Competitive inhibition assay using [I^125]-NDP-α-MSH, hMC5-R membranes; assay type: binding; design: expressed in transfected cells; details: for inhibition at 1 µM: read-out: Inhibition at 1 μM (NDP-α-MSH) In Normal System, MC5-R
Method: as §1, §2

MC1-R = target: T2, MC1-R (Mus musculus, UniProt Q01727); test: Competitive inhibition assay using [I^125]-NDP-α-MSH, B-16 mouse melanoma cell membranes; assay type: binding; details: read-out: Inhibition at 1 μM (NDP-α-MSH) In Normal System, MC1-R
T2 construct: B-16 mouse melanoma cells (containing MC1-R); endogenous in cells
Method: as §1, §2

MC4-R [2] = target: T1, MC4-R; test: Competitive inhibition assay using [I^125]-NDP-α-MSH, hMC4-R membranes; assay type: binding; design: host or cells: TREx-293 (HEK-293 stably expressing Tet repressor); details: for inhibition at 1 µM: read-out: Inhibition at 1 μM (NDP-α-MSH) In Normal System, MC4-R; for Ki: read-out: Ki (nM) (NDP-α-MSH) In Normal System, MC4-R
Method: as §1, §2

MC4-R [3] = target: T1, MC4-R; test: cAMP functional activity assay in HEK-293 cells, normal system; assay type: cell-based; design: expressed in transfected cells; host or cells: HEK-293; details: for intrinsic activity at MC4-R in a normal system: NDP-α-MSH = 1.0
Method: General method for EC50 determination in functional activity assay. […] Data analysis and EC50 values were determined using nonlinear regression analysis with Prism Graph-Pad software.
Functional status. The agonist/antagonist status with respect to MC1-R, MC-3R, MC4-R and MC5-R of certain compounds of the invention was determined. Antagonistic activity was determined by measuring the inhibition of α-MSH-induced or NDP-α-MSH-induced cAMP levels following exposure to graded doses of compounds as in the preceding descriptions.
Assay for agonist. Evaluation of the molecules to elicit a functional response in HEK-293 cells expressing MC4-R was accomplished by measuring the accumulation of intracellular cAMP following treatment. Confluent HEK-293 cells expressing MC4-R receptors were detached by enzyme free cell suspension buffer. […] The cells were plated in a 96 well plates at a density of 0.5×10^5 cells per well and pre-incubated for 30 minutes. Test compounds (dissolved in dimethylsulfoxide (DMSO) at a concentration range of 0.05-5000 nM) were added in a total assay volume of 200 μL and cells were incubated for 1 hour at 37° C. The concentration of DMSO was always held at 1% in the assay mixture. NDP-α-MSH was used as the reference agonist. […] Data analysis and EC50 values were determined by using nonlinear regression analysis with Prism Graph-Pad software. […] Compounds with a response ratio of less than 0.1 (10%) were evaluated for antagonistic activity.

[4] = Penile erection induction in male rats; assay type: in vivo; details: rat
Method: Penile erection induction. The ability of compounds to induce penile erection (PE) in male rats was evaluated with selected compounds. Male Sprague-Dawley rats weighing 200-250 g were kept on a 12 hour on/off light cycle with food and water ad libitum. All behavioral studies were performed between 10 A.M. and 5 P.M. Groups of 4-8 rats were treated with compounds at a variety of doses via intravenous (IV) or intracerebroventricular (ICV) routes. Immediately after treatment, rats were placed into individual polystyrene cages (27 cm long, 16 cm wide, and 25 cm high) for behavioral observation. […] Controls utilized carrier without the test compound. Mean PEs in control groups were 0.17 to 0.5 PEs/rat by IV administration in various experiments and between 1-2 PEs/rat by ICV administration in various experiments, and thus only PEs with statistically relevant increases over the mean PEs in control groups are reported as inducing PEs. A PE response in IV animals greater than the mean PEs in control groups but less than 1.0 PEs/rat, particularly with less than all animals responding, was treated as equivocal, and not necessarily distinguishable from vehicle control. In selected instances, compounds with equivocal results in the IV model were tested for penile response in an ICV model, and compounds without a statistically relevant increase over the mean PEs in ICV control groups were determined to not induce PEs.

MC4-R [5] = target: T1, MC4-R; test: cAMP agonist stimulation, low receptor density system (0.1 ng/mL doxycycline); details: for Efficacy/Intrinsic Activity: 0.1 ng/mL doxycycline, low receptor density hMC4-R system, NDP-α-MSH maximal cAMP = 1.0
[6] = ICV food intake and body weight change; assay type: in vivo; details: rat, 1 nmol, 24 hours
Method: ICV food intake and body weight change. Change in food intake and body weight was evaluated for selected compounds. Rats with indwelling intracerebroventricular cannulas (ICV rats) were obtained from Hilltop Lab Animals, Inc. (Scottdale, Pa.). Animals were individually housed in conventional plexiglass hanging cages and maintained on a controlled 12 hour on/off light cycle. Water and powdered (LabDiet, 5P00 Prolab RMH 3000) or pelleted (Harlan Teklad 2018 18% Protein Rodent Diet) food was provided ad libitum. For 1 week before treatment, 24-hour food intake and body weight change was recorded to assess a baseline for the group during vehicle treatment. The rats were dosed ICV with vehicle or selected compounds (1-3 nmol). The changes in body weight and food intake for the 24 hour period after dosing were determined. The changes in body weight and food intake for the 48 hour and 72 hour periods after dosing were also measured to determine reversal of changes in body weight and food intake effects back to baseline levels.

[7] = normal system, 1 μM concentration where stated

Chain of MC3-R (P41968 whole entry): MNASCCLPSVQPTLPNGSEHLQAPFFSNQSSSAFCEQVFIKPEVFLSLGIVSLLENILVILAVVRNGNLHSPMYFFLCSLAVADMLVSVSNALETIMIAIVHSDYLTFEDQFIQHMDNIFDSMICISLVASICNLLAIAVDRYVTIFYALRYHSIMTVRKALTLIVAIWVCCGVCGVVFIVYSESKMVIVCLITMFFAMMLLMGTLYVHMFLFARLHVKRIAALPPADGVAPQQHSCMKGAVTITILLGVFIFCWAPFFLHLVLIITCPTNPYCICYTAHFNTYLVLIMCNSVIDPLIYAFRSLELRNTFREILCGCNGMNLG
T2 sequence (Q01727 whole entry): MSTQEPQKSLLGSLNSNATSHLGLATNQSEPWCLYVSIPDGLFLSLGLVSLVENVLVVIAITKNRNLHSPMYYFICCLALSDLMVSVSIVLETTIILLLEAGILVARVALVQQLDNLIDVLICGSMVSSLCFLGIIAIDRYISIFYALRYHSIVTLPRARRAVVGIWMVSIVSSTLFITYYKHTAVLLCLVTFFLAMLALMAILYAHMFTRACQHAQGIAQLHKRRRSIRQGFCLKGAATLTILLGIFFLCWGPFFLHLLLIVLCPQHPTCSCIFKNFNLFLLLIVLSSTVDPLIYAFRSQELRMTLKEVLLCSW
T1 sequence (P32245 whole entry): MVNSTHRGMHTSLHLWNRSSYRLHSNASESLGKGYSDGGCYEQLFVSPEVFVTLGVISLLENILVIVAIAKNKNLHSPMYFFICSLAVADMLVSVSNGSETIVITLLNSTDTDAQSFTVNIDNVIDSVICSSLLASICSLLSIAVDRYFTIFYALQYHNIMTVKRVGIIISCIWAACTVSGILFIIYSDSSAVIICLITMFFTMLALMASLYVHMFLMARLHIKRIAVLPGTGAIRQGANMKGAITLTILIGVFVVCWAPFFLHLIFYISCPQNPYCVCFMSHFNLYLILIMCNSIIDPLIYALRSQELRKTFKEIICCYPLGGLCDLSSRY
Chain of MC5-R (P33032 whole entry): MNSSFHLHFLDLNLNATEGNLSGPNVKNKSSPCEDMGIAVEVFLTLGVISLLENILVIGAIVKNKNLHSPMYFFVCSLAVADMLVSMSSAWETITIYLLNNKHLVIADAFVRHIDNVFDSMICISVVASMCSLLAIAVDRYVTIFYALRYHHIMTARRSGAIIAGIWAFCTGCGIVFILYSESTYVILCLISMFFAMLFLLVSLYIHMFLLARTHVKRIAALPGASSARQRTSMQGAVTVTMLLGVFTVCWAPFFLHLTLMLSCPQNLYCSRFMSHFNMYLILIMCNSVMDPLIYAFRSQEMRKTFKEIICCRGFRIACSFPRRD

pEC50 (MC4-R [1]) | inhibition at 1 µM (MC3-R; 1 μM test compound) [%] | inhibition at 1 µM (MC5-R; 1 μM test compound) [%] | inhibition at 1 µM (MC1-R; 1 μM test compound) [%] | inhibition at 1 µM (MC4-R [2]; 1 μM test compound) [%] | Ki (MC4-R [2]) [nM] | pEC50 (MC4-R [5]) | SMILES | other results
8.40 | 83 | 92 | 71 | 99 | 38 |  | CCCC[C@H](NC(C)=O)C(=O)N[C@H]1CC(=O)NCCCC[C@@H](C(=O)N(C)C)NC(=O)[C@H](Cc2cccc3ccccc23)NC(=O)[C@H](CCCNC(=N)N)NC(=O)[C@@H](Cc2ccccc2)NC(=O)[C@H](Cc2c[nH]c3ccccc23)NC1=O [Example 36, Ac-Nle-cyclo(-Asp-Trp-D-Phe-Arg-Nal 1-Lys)-N(CH3)2] (Ac-[Nle]DW[dF]R[1Nal]K-NMe2; lactam 2-7) | 
8.00 | 92 | 92 | 98 | 100 | 9 |  | CCCC[C@H](NC(C)=O)C(=O)N[C@H]1CC(=O)NCCCC[C@@H](C(=O)NCC)NC(=O)[C@H](Cc2cccc3ccccc23)NC(=O)[C@H](CCCNC(=N)N)NC(=O)[C@@H](Cc2ccccc2)NC(=O)[C@H](Cc2c[nH]c3ccccc23)NC1=O [Example 38, Ac-Nle-cyclo(-Asp-Trp-D-Phe-Arg-Nal 1-Lys)-NH—CH2—CH3] (Ac-[Nle]DW[dF]R[1Nal]K-NHEt; lactam 2-7) | 
8.96 | 93 | 93 | 100 | 98 | 2 | 8.00 | CCCC[C@H](NC(C)=O)C(=O)N[C@H]1CC(=O)NCCCC[C@@H](C(=O)NCC)NC(=O)[C@H](Cc2cccc3ccccc23)NC(=O)[C@H](CCCNC(=N)N)NC(=O)[C@@H](Cc2ccccc2)NC(=O)[C@H](Cc2c[nH]cn2)NC1=O [Example 39, Ac-Nle-cyclo(-Asp-His-D-Phe-Arg-Nal 1-Lys)-NH—CH2—CH3] | 
 |  |  |  |  |  |  | CCCC[C@H](NC(C)=O)C(=O)N[C@H]1CC(=O)NCCCC[C@@H](C(=O)O)NC(=O)[C@H](Cc2c[nH]c3ccccc23)NC(=O)[C@H](CCCNC(=N)N)NC(=O)[C@@H](Cc2ccccc2)NC(=O)[C@H](Cc2c[nH]cn2)NC1=O [PT-141, cyclo 2,7[Ac-Nle-Asp-His-D-Phe-Arg-Trp-Lys]-OH, reference compound] | Penile Erection ICV ([4]; ICV): Yes**; Penile Erection IV ([4]; IV): Yes**
9.22 | 92 | 92 | 82 | 100 | 5 | 8.68 | CCCC[C@H](NC(C)=O)C(=O)N[C@H]1CC(=O)NCCCC[C@@H](C(=O)N(C)C)NC(=O)[C@H](Cc2cccc3ccccc23)NC(=O)[C@H](CCCNC(=N)N)NC(=O)[C@@H](Cc2ccccc2)NC(=O)[C@H](Cc2c[nH]cn2)NC1=O [Example 37, Ac-Nle-cyclo(-Asp-His-D-Phe-Arg-Nal 1-Lys)-N(CH3)2] | 
9.30 | 65 | 16 | 96 | 96 | 6 | 8.51 | CCNC(=O)[C@@H]1CCCCNC(=O)C[C@H](NC(C)=O)C(=O)N[C@@H](Cc2c[nH]cn2)C(=O)N[C@H](Cc2ccccc2)C(=O)N[C@@H](CCCNC(=N)N)C(=O)N[C@@H](Cc2c[nH]c3ccccc23)C(=O)N1 [Example 40, Ac-cyclo(-Asp-His-D-Phe-Arg-Trp-Lys)-NH—CH2—CH3] | EC50 (MC4-R [3]; normal receptor density system): 3 nM; Ki (MC5-R; read-out: Ki (nM) (NDP-α-MSH) In Normal System, MC5-R): > 1000 nM
 |  |  |  |  |  |  | N=C(N)NCCC[C@H](NC(=O)[C@@H](Cc1ccc(Cl)cc1)NC(=O)C1(NC(=O)Cc2ccc3ccccc3c2)CCCCC1)C(=O)N[C@@H](Cc1c[nH]c2ccccc12)C(N)=O [Example 24, 2-naphthylacetyl-1-amino-1-cyclohexane-carbonyl-D-Phe(4-Cl)-Arg-Trp-NH2] ({Acetyl(2-naphthyl)}-[Ac6c][dPhe(4-Cl)]RW-NH2) | intrinsic activity at MC4-R in a normal system (MC4-R [3]; normal receptor density system): 0.2; functional status at MC4-R in cAMP assay (MC4-R [3]; [7]): partial agonist (intrinsic activity between 0.1 (10%) and 0.7 (70%) is classified as a partial agonist); Efficacy/Intrinsic Activity (MC4-R [1]): None; Efficacy/Intrinsic Activity (MC4-R [5]): None; decrease in body weight [6]: 1%; decrease in food intake [6]: 21%
 |  |  |  |  |  |  | CNC(=O)[C@@H]1CCCCNC(=O)C[C@H](NC(C)=O)C(=O)N[C@@H](Cc2c[nH]c3ccccc23)C(=O)N[C@H](Cc2ccc3ccccc3c2)C(=O)N[C@@H](CCCNC(=N)N)C(=O)N[C@@H](Cc2ccc3ccccc3c2)C(=O)N1 [Example 35, Ac-cyclo(Asp-Trp-D-Nal 2-Arg-Nal 2-Lys)-NH—CH3] (Ac-DW[d2Nal]R[2Nal]K-NHMe; lactam 1-6) | functional status at MC4-R in cAMP assay (MC4-R [3]; at 1 nM dose): inactive; inhibition at 1 µM (MC3-R): 99%; inhibition at 1 µM (MC5-R): 98%; inhibition at 1 µM (MC1-R): 67%; inhibition at 1 µM (MC4-R [2]): 100%

SMILES | pEC50 (MC4-R [1]) | inhibition at 1 µM (MC3-R; 1 μM test compound) [%] | inhibition at 1 µM (MC5-R; 1 μM test compound) [%] | inhibition at 1 µM (MC1-R; 1 μM test compound) [%] | inhibition at 1 µM (MC4-R [2]; 1 μM test compound) [%] | Ki (MC4-R [2]) [nM] | pEC50 (MC4-R [5]) | other results
C[C@H](NC(=O)[C@H](CCCNC(=N)N)NC(=O)[C@@H](Cc1ccc(Cl)cc1)NC(=O)[C@H](COCc1ccccc1)NC(=O)CCCCCCN)c1cccc2ccccc12 [Example 16, 7′-amino-heptanoyl-Ser(Bzl)-D-Phe(4-Cl)-Arg-S-(−)-1-(1-naphthyl)ethylamide] | 6.74 |  |  |  |  |  |  | 
CCCCCCC(=O)N[C@H](C(=O)N[C@H](Cc1ccc(Cl)cc1)C(=O)N[C@@H](CCCNC(=N)N)C(=O)N[C@@H](Cc1c[nH]c2ccccc12)C(N)=O)[C@@H](C)OCc1ccccc1 [Example 23, Heptanoyl-Thr(Bzl)-D-Phe(4-Cl)-Arg-Trp-NH2] (Heptanoyl-T(Bn)[dPhe(4-Cl)]RW-NH2) | 6.74 |  |  |  |  |  |  | intrinsic activity at MC4-R in a normal system (MC4-R [3]; normal receptor density system): 0.4; functional status at MC4-R in cAMP assay (MC4-R [3]; [7]): partial agonist (intrinsic activity between 0.1 (10%) and 0.7 (70%) is classified as a partial agonist); Efficacy/Intrinsic Activity (MC4-R [1]): 0.75; Penile Erection IV ([4]; IV): No; penile erection response ([4]; IV, 1 μg/kg): no penile erection response; Efficacy/Intrinsic Activity (MC4-R [5]): None; decrease in body weight [6]: 1%; decrease in food intake [6]: 18%
